These results are taken from publication PMC10669220, “In Vitro α-Glucosidase and α-Amylase Inhibition, Cytotoxicity and Free Radical Scavenging Profiling of the 6-Halogeno and Mixed 6,8-Dihalogenated 2-Aryl-4-methyl-1,2-dihydroquinazoline 3-Oxides” (Antioxidants, 2023).

Data set [1] relates to nitric oxide synthase (NOS). The data set can be described thus: Kinetic study on inhibitory activity of NOS. In kind it is biochemical. To be noted: seven concentrations 1-10.0 μM; Figure 3; read-out: IC50 NOS inhibition (kinetic study). The procedure:
A nitric oxide synthase (NOS) assay was performed following the procedure recommended by the manufacturer as outlined in the screening kit (Catalogue No. EINO-100; EnzyChrom). Various concentrations (1, 2.5, 4.0, 5.5, 7.0, 8.5 and 10.0 µM) of the compounds 3i and the reference standard, DPI, were prepared. The enzyme solution (12.5 U/mL NOS, 10 uL), assay buffer (25 µL) and test samples (5 µL) were incubated at room temperature for 15 min. After pre-incubation, 10 µL of reaction mix was added and incubated at 37 °C for 60 min. A 200 µL quantity of NO detection reagent was added, the detection reaction was run at 37 °C for 60 min, and absorbance was determined at a wavelength of 540 nm using an Elisa plate reader (Varioskan Flash, ThermoFisher Scientific, Vantaa, Finland). The average of three readings was used to calculate the NOS percentage inhibition using the formula in Section 2.6.3

A short description of data set [2]: NO free radical scavenging assay (sodium nitroprusside/Griess). To be noted: mean ± SD; sodium nitroprusside, Griess reagent, 550 nm. A digest of the protocol: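 Test compound incubated with 10 mM sodium nitroprusside (stock) in phosphate buffer for 2.5 h at 25 °C, then Griess reagent added for 30 min. Triplicate absorbance means used for IC50 by nonlinear dose–response regression.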

The structures appear in SMILES notation.

Broadly, the IC50 is the concentration that inhibits the measured activity by half. For orientation: melting point means the temperature, or range, at which the solid turns liquid.

`CC1=[N+]([O-])C(c2ccccc2)Nc2c(I)cc(Br)cc21` (stereo not drawn) [Compound 3i] came in with a melting point of 162 to 164 °C. For the same compound, the IC50 in data set [1] is 6.75 ± 0.002 µM. Further, in data set [2], half-maximal inhibition (IC50) was put at 61.26 ± 0.005 µM.
